Among the data in PubChem BioAssay (NCI) are TGI and GI50 values, retold here.

Broadly, the TGI is the concentration at which net growth stops. The low end stands for greater sensitivity of the cells, the high end for lower sensitivity of the cells. Usually GI50 stands for the concentration giving 50% growth inhibition.

SMILES strings stand for the structures. Values joined by “and” are separate entries in the source; they are usually repeats but may differ in a detail not shown here. Identical values can stand only once.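 Tested at 5 concentrations; 48 h exposure; 96-well plates; endpoints linearly interpolated, else capped at highest concentration. GI50: concentration for 50% inhibition of growth. TGI: total growth inhibition.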 A value given as a limit tells only on which side of the number the result lay.

Holding throughout (assay): DTP human tumour cell line panel, 48 h
Assay [1] deals with CAKI-1 renal.
Assay [2] relates to DU-145 prostate.
The subject of assay [3] is HCT-116 colon.
Assay [4] relates to MCF7 breast.
Assay [5] relates to NCI-H23 lung.
Assay [6] concerns SF-268 CNS.
Assay [7] concerns SK-OV-3 ovarian.
For assay [8], the system named is SF-539 CNS.
Assay [9] deals with SNB-75 CNS.
Assay [10] concerns MDA-MB-231 breast.

For `CC1=NNC(N)=N/C1=C/C(Sc1ccc(Cl)cc1)c1cccs1` (centres undefined), the concentration for total growth inhibition (TGI) worked out at 53.9 µM in assay [1]; 68.2 µM in [2]; 29.8 µM in assay [3]; 20.4 µM in [4]; 52 µM in assay [5]; 30.5 µM in assay [6]. This compound also came in with a TGI in assay [7] of 26.4 µM.
`Cc1ccc2c(c1)c(=O)c1c(NCCN(C)C)ccc3nnn2c31`: the TGI was 12.3 µM in assay [1]; 15.2 µM in [3]; 15.3 µM in [5]; 20.2 µM in assay [6]; 17.8 µM in [8]; 37.6 µM in [7]. In assay [9], the TGI turned out to be 16.9 µM.
Turning to `c1ccc(C2=NN3CN(N2)c2ccccc2OCCCOc2ccccc23)cc1`, the TGI in assay [3], in assay [5], in assay [6], in assay [8] and in assay [9] was greater than 100 µM each time.
On to `CC(=O)N(C(C)=O)n1c(Cc2ccc(Cl)cc2)nn(C(C)=O)c1=O`, for which the TGI in assay [2], in [4], in assay [10], in assay [5], in [6] and in assay [8] was greater than 100 µM throughout. Moreover, the TGI in assay [7] and in assay [9] was greater than 100 µM throughout.
`C#CC(C)(C)Oc1cc(OC)c2c(=O)c3ccccc3n(C)c2c1`: the TGI in assay [2] was 55.8 µM; in [3], greater than 100 µM; in assay [4], greater than 100 µM; in assay [10], 56.1 µM; in assay [6] it was 73 µM; in [8] it was 76 µM. The TGI in assay [7] turned out to be 54.9 µM; in assay [9] it was 70.1 µM.
With `O=C1c2cc(Cl)ccc2-n2c(noc2=O)C2CSCN12` (centres undefined), the TGI in assay [1], in assay [2], in assay [3], in [4], in assay [10] and in assay [6] was greater than 100 µM each time. Besides, the total growth inhibition concentration (TGI) in assay [7] and in assay [9] was greater than 100 µM throughout.
As to `CCCCN(CCCC)C(=NCc1ccccc1)NC#N`, the TGI was determined as 43.9 µM in [1]; 65.4 µM in assay [3]; 58.5 µM in assay [5]; 60.3 µM in [6]; 41.2 µM in assay [8]; 70.6 µM in assay [7]. The same compound displayed a TGI in [9] of 95.2 µM.
Regarding `NC1=NS(=O)(=O)N=C(N)C1=Cc1ccc([N+](=O)[O-])o1`, the TGI is 28.7 µM in [3]; 31.4 µM in [5]; 31.3 µM in [6]; 32.3 µM in [8]; greater than 100 µM in [7]; 29.9 µM in assay [9].
For `COc1cc2c3c(n(CCCNCCO)c(=O)c2cc1OC)-c1cc2c(cc1C3=O)OCO2`, the GI50 in assay [2] is 0.0299 µM; in assay [3], 0.0662 µM and 0.0639 µM; in assay [10], 1.09 µM; in [5] it was 0.0437 µM; in assay [6], less than 0.01 µM; in [7], 0.603 µM and 0.663 µM. The TGI in assay [3] was 1.05 µM and 0.686 µM; in assay [4], 0.155 µM and 0.113 µM; in assay [10], 2.03 µM and 5.18 µM; in [5], 0.171 µM and 0.493 µM; in assay [6], 0.448 µM; in assay [8], 1.36 µM. Further, the TGI in assay [7] was 2.15 µM and 19 µM.
With `Brc1ccc(N2C[N+](c3ccc(Br)cc3)=NC(c3ccccc3)=N2)cc1`, the TGI in [1] is 33.3 µM and > 100 µM; in [3], 32.9 µM and > 100 µM; in assay [5], 31.7 µM and > 100 µM; in assay [6], 35.8 µM and > 100 µM; in [8] it was 29.8 µM and > 100 µM; in [7], 34.3 µM and > 100 µM. For the same compound, the TGI in [9] is 48.4 µM and > 100 µM.
For the compound `O=C1CSC2(CC(/C=C/C=C/c3ccccc3)=NN2c2cccc(S(=O)(=O)O)c2)N1c1nc2ccccc2s1` (centres undefined), the TGI in [1], in assay [3], in assay [4], in assay [10], in assay [5] and in assay [8] was greater than 100 µM in each case. For the same compound, in assay [9], the TGI is greater than 100 µM.
Regarding `Cc1ccc(S(=O)(=O)Nn2c(-c3ccccc3)c(C#N)c(-c3ccc([N+](=O)[O-])cc3)c(C#N)c2=O)cc1`, the TGI in assay [1], in [3], in [4], in [10], in assay [6] and in assay [8] was greater than 100 µM in each case. In addition, the TGI in assay [7] and in [9] was greater than 100 µM each time.
For `Cc1cnc(Cl)nc1C(C#N)c1nc2ccccc2n1C` (centres undefined), the TGI is greater than 100 µM in [1]; greater than 100 µM in assay [2]; 51.2 µM in assay [3]; greater than 100 µM in assay [10]; greater than 100 µM in assay [5]; greater than 100 µM in [6]. Besides, the TGI is 71.3 µM in assay [8], greater than 100 µM in assay [7] and 69.3 µM in assay [9].
Turning to `O=C1CCC2(CCC(=O)NC2=O)C(=O)N1`, the TGI in [3], in [5], in [6], in assay [8] and in [7] was greater than 100 µM in each case.
For the compound `CC(C)=CC(=O)O[C@@H]1CC(C)(C)CC2C3=CCC4[C@]56CC[C@](O)(OC5)C(C)(C)C6CC[C@@]4(C)C3(C)CC[C@]21C(=O)O` (some centres undefined), the TGI was greater than 100 µM in assay [1]; greater than 100 µM in assay [2]; greater than 100 µM in assay [3]; greater than 100 µM in assay [4]; greater than 100 µM in assay [10]; 89.4 µM in [5]. In addition, the TGI in assay [6], in assay [8] and in assay [7] was greater than 100 µM throughout.
As to `O=C(c1cccs1)N(C(=S)N1CCN(c2ccccc2)CC1)c1ccccc1`, the TGI in assay [1], in assay [3], in [5], in assay [6], in assay [8] and in [7] was greater than 100 µM in each case. In [9], this compound registered a TGI greater than 100 µM.
Take `COc1ccc(CNc2nc(NCc3ccc(OC)cc3)nc(NC3CCCCC3)n2)cc1`: the TGI in assay [1] amounted to 4.86 µM; in [2], 6.88 µM; in assay [3], 11.7 µM; in assay [4], 0.533 µM; in assay [10], 7.73 µM; in [6] it was 6.5 µM. For the same compound, the TGI in assay [8] and in [7] was greater than 100 µM each time.
